Experimental data from patent US11311593B2, “Root extracts from plants of the Morus genus and uses of same” (PLANT ADVANCED TECHNOLOGIES PAT, priority 2017, dated 2022).

Assays:
[1] = tested on: fungal tyrosinase; assay: Target Binding affinity test for tyrosinase (UPLC-MS of bound ligands)
Description: It is based on the principle of bringing the ligands and the target into contact in the liquid phase so that the ligands that have the greatest affinity with the target bind to it, elimination of the ligands that are not fixed, separation of the complexes in order to recover the ligands which have been fixed, then quantification of the latter. In a first step of the method, the extract and the target are mixed. The compounds of the extract compete for access to the binding sites of the target. The strongest compounds displace the weakest and are retained more effectively by the target. […] A reference sample was also prepared by diluting the sample to be analyzed 10-fold in a solution of water and a quarter of the volume of acetonitrile. […] Pre-conditioning step-Wells with a filtering membrane were pre-conditioned with a volume of 500 μL of an 85% solution of ammonium acetate and 15% of ethanol which was passed through the membrane by centrifuging at 14000 g for 60 seconds. 2. […] 3. Washing step-The mixture of the enzyme and the sample to be analyzed was deposited in a well that had been pre-conditioned in the pre-conditioning step, then centrifuged at 14000 g until most of the solvent had been eliminated. […] This procedure was repeated three times and eliminated all of the compounds that were not bound to the enzyme. 4. Separation step-The enzyme-ligand complexes retained in the filter were re-suspended in a volume of 10 μL of ultra-pure water, then mixed with a volume of 40 μL of acetonitrile in order to denature and precipitate the enzyme and, at the same time, to liberate the ligands. The mixture was centrifuged at 21000 g for 10 min in order to separate the precipitate from the supernatant. 5. Analysis step-Said supernatant was analyzed by liquid phase chromatography coupled to a mass spectrometer, also known by the acronym UPLC-MS. The reference sample was also analyzed in the same manner, using the same analytical conditions. The UPLC-MS analysis was carried out in accordance with the protocol described in Example 1. The chromatograms obtained are presented in FIGS. 3A and 3B and represent a signal intensity as a function of retention time in a column. […] Each peak is associated with one of the ligands present in the analyzed extract. The quantity associated with each ligand corresponds to the area of the peak. […] For each ligand, an affinity ratio, RACEi, was calculated as follows: [formula] where: NF is a normalization factor; […] the intensity of the analytical signal for the ligand CEi in the reference sample; ISeq,REF is the intensity of the analytical signal for the reference ligand REF (here, moracenin B) in the reference sample; […] the intensity of the analytical signal for the ligand CEi in the treated solution (the sample to be analyzed after steps 2 to 4 for binding and separation of the ligands) for the detached ligands; ISTB,REF is the intensity of the analytical signal for the reference ligand REF (here, moracenin B) in the treated solution (the sample to be analyzed after steps 2 to 4 for binding and separation of the ligands) for the detached ligands; RA, CEi is the relative affinity ratio (RA), representing an affinity of the ligand CEi for the target. The value of the ratio increases with affinity.

[2] = tested on: collagenase obtained from Clostridium Histolyticum; assay: Target Binding affinity test for collagenase; details: ligands in non-stimulated M. alba root extract; moracenin B = reference ligand
Experimental: A root extract of Morus alba was prepared in accordance with the protocol described in Example 2.1. The Target Binding® method used was that of Example 2.3 which is described in patent application FR 1 670 545. The experimental protocol was as follows:
The target, a 6.25 mg/mL solution of collagenase obtained from Clostridium histolyticum, was prepared by dissolving lyophilized enzyme powder in 50 mM saline phosphate buffer with a pH of 7.5. The sample to be analyzed corresponded to the supernatant of the root extract obtained in accordance with Example 2.1. It could be centrifuged once again before use, at 21000 g for 15 min, in order to remove any traces of solid particles. A reference sample was also prepared by diluting the sample to be analyzed 10-fold in a solution of water and a quarter of the volume of acetonitrile.
1. Preconditioning step—Wells with a filtering membrane were preconditioned with a volume of 500 μL of a saline phosphate buffer which was passed through the membrane by centrifuging at 14000 g for 60 seconds.
2. Binding step—A volume of 92.5 μL of the solution obtained from the pretreatment step was mixed with 7.5 μL of the sample to be analyzed for 10 min in a plastic Eppendorf tube.
3. Washing step—The mixture of the enzyme and the sample to be analyzed was deposited in a well that had been preconditioned in the preconditioning step, then centrifuged at 14000 g until most of the solvent had been eliminated. The enzyme-ligand complexes remained on the surface of the filter membrane, then were re-suspended in a volume of 100 μL of the same saline phosphate buffer solution and centrifuged at 14000 g until the solvent had been eliminated. This procedure was repeated three times and eliminated all of the compounds that were not bound to the enzyme. 4. Separation step—The enzyme-ligand complexes retained in the filter were re-suspended in a volume of 10 μL of ultra-pure water then mixed with a volume of 30 μL of acetonitrile in order to denature and precipitate the enzyme and, at the same time, to liberate the ligands. The mixture was centrifuged at 21000 g for 10 min in order to separate the precipitate from the supernatant. 5. Analysis step—Said supernatant was analyzed by liquid phase chromatography coupled to a mass spectrometer. The reference sample was also analyzed in the same manner, using the same analytical conditions.
(§1) The UPLC-MS analysis was carried out in accordance with the protocol described in Example 1.

[3] = tested on: hyaluronidase; assay: Target Binding affinity test for hyaluronidase; details: ligands in non-stimulated M. alba root extract; moracenin B = reference ligand
Experimental: A root extract of Morus Alba was prepared in accordance with the protocol described in Example 2.1. The Target Binding® method used was that of Example 2.3 which is described in patent application FR 1 670 545. The experimental protocol was as follows: The target, a 5 mg/mL solution of hyaluronidase, was prepared by dissolving powdered lyophilized enzyme in 50 mM sodium phosphate, with a pH of 7.0. The extract corresponded to the supernatant obtained in accordance with Example 2.1. It could optionally be centrifuged once again before use, at 21000 g for 15 min, in order to eliminate the solid particles before use. A reference sample was also prepared by diluting the sample 10-fold in a solution of water and a quarter of the volume of acetonitrile.
1. Preconditioning step—Wells with a filtering membrane were preconditioned with a volume of 500 μL of a solution of 50 mM sodium phosphate, at a pH of 7.0 which was passed through the membrane by centrifuging at 14000 g for 60 seconds.
2. Binding step—The hyaluronidase preparation (5 mg/mL) was mixed with 7.5 μL of the root extract for 5 min in a plastic Eppendorf tube.
3. Washing step—the mixture of the enzyme and the root extract was deposited in a well that had been preconditioned in the preconditioning step, then centrifuged at 14000 g until most of the solvent had been eliminated. The enzyme-ligand complexes remained on the surface of the membrane of the filter then were re-suspended in a volume of 100 μL of the same solution of 50 mM sodium phosphate at a pH of 7.0, and centrifuged at 14000 g until the solvent had been eliminated. This procedure was repeated three times and eliminated all of the compounds that were not bound to the enzyme. 4. Separation step—The enzyme-ligand complexes retained in the filter were re-suspended in a volume of 10 μL of ultra-pure water then mixed with a volume of 40 μL of acetonitrile in order to denature and precipitate the enzyme and at the same time to liberate the ligands. The mixture was centrifuged at 21000 g for 10 min in order to separate the precipitate from the supernatant. 5. Analysis step—Said supernatant was analyzed by liquid phase chromatography coupled to a mass spectrometer, also known by the acronym UPLC-MS. The reference sample was also analyzed in the same manner, using the same analytical conditions.
as §1

[4] = target: T1, hyaluronidase originating from bull testicles (type IV-S) (Bos taurus, UniProt Q2YDK3); assay: Anti-hyaluronidase inhibiting activity, hyaluronic acid as substrate, precipitation with acidic BSA; format: biochemical
T1 construct: hyaluronidase originating from bull testicles (type IV-S); from tissue; host or cells: bull testicles
T1 sequence (Q2YDK3 36-553): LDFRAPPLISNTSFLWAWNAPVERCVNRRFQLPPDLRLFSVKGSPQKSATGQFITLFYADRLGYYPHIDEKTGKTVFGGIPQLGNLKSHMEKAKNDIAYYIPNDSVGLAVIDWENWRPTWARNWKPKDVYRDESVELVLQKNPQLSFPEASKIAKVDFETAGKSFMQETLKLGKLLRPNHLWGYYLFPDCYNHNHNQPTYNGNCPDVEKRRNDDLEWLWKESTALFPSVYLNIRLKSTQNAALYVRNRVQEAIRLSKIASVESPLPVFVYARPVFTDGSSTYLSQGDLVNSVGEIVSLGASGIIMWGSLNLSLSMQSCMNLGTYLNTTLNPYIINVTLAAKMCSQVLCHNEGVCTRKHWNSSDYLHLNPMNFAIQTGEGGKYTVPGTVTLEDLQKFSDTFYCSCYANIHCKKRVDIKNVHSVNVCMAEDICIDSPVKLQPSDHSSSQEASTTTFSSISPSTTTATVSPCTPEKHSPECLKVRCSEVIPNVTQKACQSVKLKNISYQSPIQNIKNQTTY
Experimental: A root extract of Morus Alba was prepared in accordance with the protocol described in Example 5. Hyaluronidase catalyzes the hydrolysis of hyaluronic acids into monosaccharides, disaccharides and short oligosaccharides. The measurement of the anti-hyaluronidase inhibiting activity was carried out using hyaluronic acid (HA) as a substrate in order to follow its reduction during the enzymatic reaction, the slope of the reduction of the concentration of HA during the reaction being proportional to the enzymatic activity.
The concentration of HA was measured in accordance with the following principle: in the presence of an acidic solution of bovine serum albumin, HA precipitates. Thus, in the case of the presence of HA, a precipitate is formed and in the case of complete hydrolysis of the HA, no precipitate is observed. Thus, the quantity of precipitation is proportion& to the HA content. […]
In order to follow the enzymatic degradation of the HA, a volume of 50 μl of RM was removed every 15 minutes, mixed with a volume of 250 μL of the solution of acidic BSA (acidic solution of bovine serum albumin: 24 mM sodium acetate, 79 mM acetic add and 0.1% (w/v) bovine serum albumin, pH 3.75) then incubated for 10 min at ambient temperature. The quantity of precipitate formed was then measured using a plate reader (diffusion of light at 600 nm). […]

SMILES | Relative affinity (RA) for tyrosinase ([1]; ligands in non-stimulated M. alba root extract, moracenin B = reference ligand) | affinity for tyrosinase compared with the other compounds of the extract (in words) ([1]; peak areas of FIG. 3B / relative affinities) | Relative affinity (RA) for collagenase [2] | Relative affinity (RA) for hyaluronidase [3] | inhibition at 10 µM [4]
CC(C)=CCc1c(O)ccc(C(=O)C2C(c3c(O)cc(-c4cc5ccc(O)c(CC=C(C)C)c5o4)cc3O)C=C(C)CC2c2ccc(O)cc2O)c1O (centres unmarked) [Mulberrofuran T, mulberrofuran T] | 36.2 | greater affinity | 1.1 | 2.7 | –
O=c1c(O)c(-c2ccc(O)c(O)c2)oc2cc(O)cc(O)c12 [quercetin, reference compound] | – | – | – | – | 15.6%
